Measurements reported in ChEMBL document CHEMBL5356999, “Discovery and characterization of novel TRPML1 agonists” (Bioorg Med Chem Lett, 2024).

Experiments:
[1] = Effect on TRPML1 knockout HEK293 cells; format: functional, cell-based, Homo sapiens
[2] = Apparent permeability across apical to basolateral side in MDCK-MDR1 cells; format: ADME, cell-based, Canis lupus familiaris; conditions: dog
[3] = Efflux ratio of apparent permeability in MDCK-MDR1 cells; format: ADME, cell-based, Canis lupus familiaris; conditions: dog
[4] = Plasma protein binding in mouse; format: ADME, cell-free
[5] = Plasma protein binding in rat; format: ADME
[6] = Plasma protein binding in cynomolgus monkey; format: ADME, cell-free, Macaca fascicularis
[7] = Plasma protein binding in human; format: ADME
[8] = Protein binding in mouse brain; format: ADME, tissue-based
[9] = Stability in mouse hepatocytes assessed as half life; format: ADME, cell-based, Hepatocyte
[10] = Stability in rat hepatocytes assessed as half life; format: ADME, cell-based, Hepatocyte
[11] = Stability in cynomolgus monkey hepatocytes assessed as half life; format: ADME, cell-based, Macaca fascicularis, Hepatocyte
[12] = Cmax in mouse at 10 mg/kg, po or 1 mg/kg, iv; format: ADME, organism-based; set-up: dose 10 mg/kg, route po; conditions: in vivo
[13] = Stability in human hepatocytes assessed as half life; format: ADME, cell-based, Hepatocyte
[14] = Stability in dog assessed as half life; format: ADME, cell-based, Canis lupus familiaris, Hepatocyte; conditions: hepatocytes
[15] = Stability in mouse assessed as intrinsic clearance; format: ADME, cell-based, Hepatocyte; conditions: hepatocytes
[16] = Stability in rat assessed as intrinsic clearance; format: ADME, cell-based, Hepatocyte; conditions: hepatocytes
[17] = Stability in cynomolgus monkey assessed as intrinsic clearance; format: ADME, cell-based, Macaca fascicularis, Hepatocyte; conditions: hepatocytes
[18] = Stability in human assessed as intrinsic clearance; format: ADME, cell-based, Hepatocyte; conditions: hepatocytes
[19] = Stability in dog assessed as intrinsic clearance; format: ADME, cell-based, Canis lupus familiaris, Hepatocyte; conditions: hepatocytes
[20] = Half life in mouse at 1 mg/kg, IV; format: ADME, organism-based; conditions: in vivo
[21] = Unbound brain-to-plasma concentration ratio in mouse measured after 8 hrs; format: ADME, cell-free; conditions: read-out: K(p,uu,brain)
[22] = Bioavailability in mouse at 10 mg/kg, po or 1 mg/kg, iv; format: ADME, organism-based; conditions: in vivo
[23] = Clearance in mouse at 10 mg/kg, po or 1 mg/kg, iv; format: ADME, organism-based; conditions: in vivo
[24] = Volume of distribution at steady state in mouse at 10 mg/kg, po or 1 mg/kg, iv; format: ADME, organism-based; conditions: in vivo
[25] = Half life in mouse at 10 mg/kg, PO; format: ADME, organism-based; conditions: in vivo

CC(C)n1nnnc1[C@H](c1ccccc1F)N1CCN(c2cccc(Cl)c2)CC1
EC50 [1]: > 48.8 µM
Papp A→B [2]: 10.7 ×10⁻⁶ cm/s
efflux ratio [3]: 0.6
fu [4]: 1%
fu [5]: 0.8%
fu [6]: 1%
fu [7]: 0.4%
fu,brain [8]: 0.3%
half-life [9]: 39.1 min
half-life [10]: 9.78 min
half-life [11]: 14.2 min
Cmax [12]: 8.96 ng/mL
half-life [13]: 37 min
half-life [14]: 46.3 min
clearance [15]: 209 mL/min/kg
clearance [16]: 332 mL/min/kg
clearance [17]: 190 mL/min/kg
clearance [18]: 47.6 mL/min/kg
clearance [19]: 103 mL/min/kg
half-life [20]: 115 min
Kp uu at 8 h [21]: 0.55
bioavailability [22]: 3.45%
CL [23]: 109 mL/min/kg
Vdss [24]: 9.27 L/kg

Clc1cccc(N2CCN(C3c4ccccc4CCCCn4nnnc43)CC2)c1 (stereo not drawn)
EC50 [1]: > 48.8 µM

Clc1cccc(N2CCN(C3c4ccccc4CCCCCn4nnnc43)CC2)c1 (stereo not drawn)
EC50 [1]: > 48.8 µM

Clc1cccc(N2CCN(C3c4ccccc4/C=C\CCCn4nnnc43)CC2)c1 (stereo not drawn)
EC50 [1]: > 48.8 µM

CN(C)S(=O)(=O)c1ccc(S(=O)(=O)Nc2cccc(Cl)c2N2CCCCC2)cc1
EC50 [1]: 1 µM

CC(C)n1nnnc1[C@@H](c1ccccc1F)N1CCN(c2cccc(Cl)c2)CC1
EC50 [1]: > 48.8 µM
Papp A→B [2]: 9.9 ×10⁻⁶ cm/s
efflux ratio [3]: 0.4
fu [4]: 0.5%
fu [5]: 0.4%
fu [6]: 0.7%
fu [7]: 0.6%
fu,brain [8]: 0.3%
half-life [9]: 48 min
half-life [10]: 4.97 min
half-life [11]: 39.1 min
Cmax [12]: 36.2 ng/mL
half-life [13]: 16.9 min
half-life [14]: 57 min
clearance [15]: 170 mL/min/kg
clearance [16]: 652 mL/min/kg
clearance [17]: 69.1 mL/min/kg
clearance [18]: 104 mL/min/kg
clearance [19]: 83.7 mL/min/kg
half-life [25]: 104 min
half-life [20]: 131 min
Kp uu at 8 h [21]: 0.77
bioavailability [22]: 12.4%
CL [23]: 103 mL/min/kg
Vdss [24]: 9.01 L/kg
